This is an account of results in patent publication US10647672B2, “Modulators of cell adhesion, methods and compositions therefor” (Zonula Incorporated, priority 2017, dated 2020).

Assay [1] relates to cerebellar neurons on 3T3 fibroblasts that express N-cadherin. Kind of assay: neurite outgrowth assay. Conditions: 10 micromolar; 18 hours culture. It counts as cell-based, mouse. Here is the method: Within a representative neurite outgrowth assay, neurons are cultured on a monolayer of cells (e.g., 3T3 fibroblasts) that express N-cadherin. […] For example, neurons can be cultured on monolayers of 3T3 cells transfected with cDNA encoding N-cadherin essentially as described by Doherty, P. and Walsh, F. S., Curr. Op. Neurobiol. 4:49-55, 1994; Williams, E. J., et al., Neuron 13:583-594, 1994; Hall, H., et al., Cell Adhesion and Commun. 3:441-450, 1996; Doherty, P. and Walsh, F. S., Mol. Cell. Neurosci. 8:99-111, 1994; and Safell, J. L., et al., Neuron 18:231-242, 1997. Briefly, monolayers of control 3T3 fibroblasts and 3T3 fibroblasts that express N-cadherin are established by overnight culture of 80,000 cells in individual wells of an 8-chamber well tissue culture slide. 3000 cerebellar neurons isolated from post-natal day 3 mouse brains are cultured for 18 hours on the various monolayers in control media (SATO/2% FCS), or media supplemented with various concentrations of the modulating agent. The cultures are then fixed and stained for GAP43 which specifically binds to the neurons and their neurites. The length of the longest neurite on each GAP43 positive neuron is measured by computer assisted morphometry.

Assay [2] has as its system human fibroblast-like synoviocytes (FLS). The assay can be described thus: fibroblast-like synoviocyte cell adhesion. In kind it is cell-based. Conditions: 24 hours treatment. The protocol:
In these experiments, human fibroblast-like synoviocytes (FLS) (ScienCell Research Laboratories (Carlsbad, Calif.; Cat #4700) were maintained in complete Synoviocyte media (ScienCell Research Laboratories Carlsbad, Calif. Cat #4701) at 37° C. in 5% CO2 in air. FLS cells were plated at 1.5×10^4 cells per well of a 4-well tissue culture slide (NalgeNunc, Naperville, Ill.). After 24 hours of culture, cells were treated for 24 hours with medium containing varying concentrations of compounds 15 dissolved in dimethylsulfoxide (DMSO; final concentration of 1% DMSO in the medium), or 1% DMSO alone in the medium. The cells were then fixed with 4% paraformaldehyde dissolved in phosphate buffered saline and stained with hematoxylin. Disruption of cell adhesion was determined visually within 24 hours, by observing retraction of the cells from one another.

The test system of assay [3] is 3D spheroid N-cadherin mouse fibroblast (LN5) cells. The assay can be described thus: hanging drop 3D spheroid cell culture assay. It counts as cell-based. The note with it: hanging drops incubated 48 h. Here is the method: In these experiments, a total of 2×10^6 originally noncohesive embryonic mouse L929 fibroblasts (L cells) were transfected by electroporation in 400 μl transfection medium (RPMI 1640, 1% dextrose, 1 mM β-mercaptoethanol) with 40 μg pMiwcN chicken N-cadherin expression vector (Miyatani, S., et al., Science, 1989, 245, 631-635; Fujimori T., et al., Development, 1990, 110. 97-104). Neomycin resistance (pwlneo, GIBCO) was included for G418 selection. Transfected cells were diluted 1/100 and placed in medium containing 800 μg/ml G418 (GIBCO). Resistant cells were grown to confluence, detached by trypsin/Ca^2+ treatment, and stained with an anti-chicken N-cadherin antibody (NCD2, Zymed) on ice for 45 min. After several washes in Hanks' balanced salt solution, cells were mixed with a fluorescein isothiocyanate-conjugated secondary antibody and placed on ice for 30 min. N-cadherin-expressing cells were then autocloned into 96-well plates by using the CloneCyt Integrated Deposition System (Becton-Dickinson Immunocytometry Systems). Positive clones were reanalyzed by FACS and the L cell line LN5 was propagated for these studies.
The 3D spheroids were generated as follows. Cells were removed from near-confluent plates with TC (0.05% trypsin and 2 mM Ca^2+ in Hank's solution for 5-10 minutes), washed once with 1 mL 4° C. Hank's solution, and suspended at a concentration of 2.5×10^6 cells/ml in complete MEM supplemented with 2 mM CaCl2 and varying concentrations of N-cadherin antagonists (Crocus Laboratories, Montreal, Quebec, Canada). The antagonists were compound 15 (MW=499.43) and compound 16 (MW=499.43). Stock solutions of the antagonists were prepared by dissolving the antagonists in DMSO at concentrations of 30 mM. Controls were made by suspending the cells as described above in the absence of antagonists with only the respective amount of DMSO added. Drops of the cell suspensions (10 microliters each) were deposited on the underside of a 10 cm tissue culture dish lid. The lid was then inverted and placed on dish containing 5 ml of PBS for hydration. Hanging drops were incubated under tissue culture conditions for 48 h, allowing the cells to coalesce at the base of the droplets and to form multi-layer aggregates. The tissue culture dish lid was then removed and the medium was gently aspirated. Aggregates (N=10-20) where then photographed under 4× lens and cell area was analyzed using ImageJ. Statistical differences were determined using ANOVA and Tukey's multiple comparison test.
Each of the antagonists tested from Crocus Laboratories contained cadherin antagonist properties at different potency levels. We determined the approximate minimum concentration needed for an anti-adhesion dose response on 3D spheroid N-cadherin mouse fibroblast (LN5) cells. […]

The test system of assay [4] is classical cadherin-expressing cells. Kind of assay: cell adhesion assay, classical cadherin mediated cell adhesion. It counts as cell-based. Conditions: 1 micromolar; determined visually within 24 hours. The protocol: In these experiments, classical cadherin-expressing cells are plated under standard conditions that, in the absence of cell adhesion antagonist, permit cell adhesion. Disruption of cell adhesion is determined visually within 24 hours, by observing retraction of the cells from one another.

Assay [5] relates to female mice. Kind of assay: ovulation / corpus luteum formation in hormone-stimulated mice. In kind it is in vivo, mouse. Conditions: 50 mg/kg i.p. twice per day. The protocol:
In these experiments, two groups of female mice (n=6 per group) were injected i.p. (50 μL per injection) twice per day with either vehicle control (saline containing 7.5% DMSO) or vehicle containing compound 15 (50 mg/kg) at the days indicated in FIG. 10. The mice were injected with hormones to stimulate ovulation. FIG. 10 is a schematic showing the injection of hormones into mice to cause follicle maturation and injection of compound 15.

Consider `COc1ccc(OC[C@@H](O)CNC2CCN(C[C@H](O)COc3ccc(Cl)c(Cl)c3)CC2)cc1` [Compound 15, (S)-1-(3,4-Dichlorophenoxy)-3-(4-((S)-2-hydroxy-3-(4-methoxyphenoxy)propylamino)piperidin-1-yl)propan-2-ol], for which the “decrease in the mean neurite length relative to the length in the absence of modulating agent” value in assay [1] is recorded as “at least 50%”. Also, in assay [2], the “concentration range in which effects on FLS cells (disruption of cell adhesion) can be seen” value was 5 to 50 µM. In addition, in assay [3], the “concentration at which complete disruption occurred” value was found to be 75 µM and the “minimum concentration required to observe cohesion disruption” value came to 40 µM. The “disruption of cell adhesion (retraction of the cells from one another)” value in assay [4] is “disruption of cell adhesion is observed”. Moreover, in assay [5], the “corpus luteum formation (luteinized CL-like structures in ovaries)” value is recorded as “fewer clearly luteinized CL-like structures” and the ovulation result is “inhibits ovulation”.
